In ChEMBL document CHEMBL5725356, “Anti-fibrotic pyridinones” (2017):
pEC50: −log10 of the molar value.

Assay: ET-1 Assay: Fibroblasts (primary human lung and dermal, HFL-1, 3T3 etc) are seeded in 96-well plates at ~15000 cells/well and serum starved for 0-48 hours. After media exchange, compounds serially diluted in DMSO are added to the cells. After a brief incubation of ~30 min, stimulants (TGFb, serum, LPA etc) are added followed by further incubation for 16-48 hours. Media is then harvested and stored frozen in plate format for later endothelin-1 (ET-1) determination by ELISA. Toxicity measurements are made using the ATPlite kit (Perkin-Elmer). ET-1 is quantified using an ELISA kit (R&D Systems). The amount of ET-1 produced in the assay wells are back-calculated using the ELISA standard. The ability of a compound to inhibit ET-1 production is typically analyzed by fitting dose-response curves to a 4-parameter logistic function to obtain an EC50 value.
Settings: HFL1

Compound | EC50 | pEC50
O=c1ccc(-c2ccc(F)cc2)cn1-c1cccc(C(F)(F)F)c1 | in the range around 125 µM | –
Cn1cc(-c2cn(-c3ccc(OC(F)(F)F)cc3)c(=O)cc2Nc2ccccc2)cn1 | – | < 3.70
Cc1cc(=O)n(-c2ccc(OC(F)(F)F)cc2)cc1-c1cccnc1 | – | < 3.70
Cn1cc(-c2cn(-c3ccc(OC(F)(F)F)cc3)c(=O)cc2OCCN2CCOCC2)cn1 | – | < 3.70
Cc1ccc(F)c(-c2ccccc2)c1 | – | < 3.70
O=c1ccc(-c2cccc(Cl)c2)cn1-c1ccccc1 | in the range around 125 µM | –
CCOC(=O)Nc1cc(=O)n(-c2ccc(OC(F)(F)F)cc2)cc1-c1ccc(F)cc1 | – | < 3.70
CC(=O)Nc1cccc(-n2cc(-c3ccccc3)c(C)cc2=O)c1 | – | < 3.70
Cc1cc(=O)n(-c2cccc(C(F)(F)F)c2)cc1-c1ccc(F)cc1 | in the range around 125 µM | –
Cn1cc(-c2cn(-c3ccc(OC(F)(F)F)cc3)c(=O)cc2OCc2ccccc2)cn1 | – | < 3.70
CCn1ccc2c(-c3cnn(C)c3)c[nH]c(=O)c21 | – | > 4.30
CCn1nc2c(-c3cn[nH]c3)cn(-c3ccc(OC(F)(F)F)cc3)c(=O)c2n1 | – | > 4.30
CC(C)n1cc(-c2cn(-c3ccc(OC(F)(F)F)cc3)c(=O)c3c2ncn3C)cn1 | – | > 4.30
O=c1ccc(-c2ccccc2)cn1-c1ccc(F)cc1 | in the range around 125 µM | –
Cc1cc(=O)n(-c2cccc(C(F)(F)F)c2)cc1-c1cnn(C)c1 | – | < 3.70
Cc1cc(=O)n(-c2ccc(OC(F)(F)F)cc2)cc1-c1cccc(Cl)c1 | in the range around 125 µM | –
C#Cc1ccc(=O)n(-c2ccccc2)c1 | – | < 3.70
CCOc1ccc(-n2cc(-c3cnn(C)c3)c(NCc3ccc(F)cc3F)cc2=O)c(C)c1 | – | > 4.30
Cn1cc(-c2cn(-c3ccc(OC(F)(F)F)cc3)c(=O)cc2O)cn1 | – | < 3.70
Cc1cc(=O)n(-c2ccc3c(c2)OCCO3)cc1-c1ccc(F)cc1 | – | < 3.70
Cc1cc(=O)n(-c2ccc(OC(F)(F)F)cc2)cc1-c1cscn1 | in the range around 125 µM | –
Cn1cc(-c2cn(-c3ccc(OC(F)(F)F)cc3)c(=O)c3cccnc23)cn1 | – | > 4.30
Cc1ccc(=O)n(CCc2ccccc2)c1 | in the range around 125 µM | –
Cc1cc(=O)n(-c2ccc(OC(F)(F)F)cc2)cc1-c1ccc(Cl)c(F)c1 | in the range around 125 µM | –
Cc1cc(=O)n(-c2ccc(OC(F)(F)F)cc2)cc1-c1cccc2c1OCCO2 | – | > 4.30

Compound | EC50 | pEC50
O=c1c2[nH]ccc2c(-c2cn[nH]c2)cn1-c1ccc(OC(F)(F)F)cc1 | – | > 4.30
CNc1cc(=O)n(-c2ccc(OC(F)(F)F)cc2)cc1-c1cnn(C)c1 | – | < 3.70
CCOc1ccc(-n2cc(-c3cnn(C)c3)c(NCc3ccc(C#N)cc3)cc2=O)c(C)c1 | – | > 4.30
Cc1cc(=O)n(-c2ccc(OC(F)(F)F)cc2)cc1-c1ccc2c(c1)NC(=O)CO2 | – | > 4.30
COc1ccc(-c2ccc(=O)n(-c3cncnc3)c2)cc1 | – | < 3.70
CCn1cnc2c(-c3cnn(C(C)C)c3)cn(-c3ccc(OC(F)(F)F)cc3)c(=O)c21 | – | > 4.30
O=c1c2c(c(-c3cccc(F)c3)cn1-c1ccc(OC(F)(F)F)cc1)CCCC2 | – | > 4.30
O=c1c2[nH]nnc2c(-c2cn[nH]c2)cn1-c1ccc(OC(F)(F)F)cc1 | in the range around 125 µM | –
O=c1ncc(-c2ccc(F)cc2)cn1-c1ccc(OC(F)(F)F)cc1 | – | < 3.70
CCOc1ccc(-n2cc(-c3ccc(F)cc3)ccc2=O)c(C)c1 | – | < 3.70
CC(C)Oc1ccc(-n2cc(Br)ccc2=O)cc1 | – | < 3.70
CN1CCC(Oc2cc(=O)n(-c3ccc(OC(F)(F)F)cc3)cc2-c2ccc(F)cc2)CC1 | – | > 4.30
CCOc1ccc(-n2cc(-c3cnn(C)c3)c(NCc3ccc(OCCOC)cc3)cc2=O)c(C)c1 | – | > 4.30
O=c1ccc(-c2ccccc2)cn1-c1cccc(F)c1 | – | < 3.70
Cc1cc(=O)n(-c2ccc(OC(F)(F)F)cc2)cc1-c1ccc2oc(=O)[nH]c2c1 | – | > 4.30
Cc1nc2c(-c3cnn(C)c3)cn(-c3ccc(OC(F)(F)F)cc3)c(=O)c2s1 | – | > 4.30
CC(=O)Nc1cccc(-n2cc(C(F)(F)F)ccc2=O)c1 | – | < 3.70
O=c1ccc(-c2ccccc2)cn1-c1ccncc1 | – | < 3.70
Cc1cc(=O)n(-c2ccc(OC(F)(F)F)cc2)cc1-c1ccc2c(c1)OCC(=O)N2CCO | – | < 3.70
CCOc1ccc(-n2cc(-c3cccc(F)c3)c(C)cc2=O)c(C)c1 | in the range around 125 µM | –
Cc1cc(=O)n(-c2ccc(OC(F)(F)F)cc2)cc1-c1cccc2c1N(C)C(=O)CO2 | – | < 3.70
CCOc1ccc(-c2c(-c3ccc(F)cc3)c(=O)c2=O)c(C)c1 | – | > 4.30
CCOC(=O)Nc1cccc(-n2cc(-c3ccc(F)cc3)c(C)cc2=O)c1 | – | > 4.30
COC(=O)Nc1cc(=O)n(-c2ccc(OC(F)(F)F)cc2)cc1-c1ccc(F)cc1 | – | < 3.70
Cc1cc(=O)n(-c2ccc3c(c2)OCO3)cc1-c1cnn(C)c1 | – | < 3.70

Compound | EC50 | pEC50
Cn1cc(-c2cnc(=O)n(-c3ccccc3)c2)cn1 | – | < 3.70
Cn1cc(-c2cn(-c3ccc(O)cc3)c(=O)cc2Oc2ccccc2)cn1 | – | < 3.70
Cc1cc(=O)[nH]cc1-c1ccc2c(c1)OCC(=O)N2C | – | > 4.30
O=c1ncc(-c2ccc(F)cc2)cn1-c1ccccc1 | in the range around 125 µM | –
CN1C(=O)COc2c(-c3cnn(C)c3)cn(-c3ccc(OC(F)(F)F)cc3)c(=O)c21 | – | < 3.70
CCOc1ccc(-n2cc(-c3cnn(C)c3)c(N(C)Cc3ccccc3)cc2=O)c(C)c1 | – | > 4.30
Cn1cc(-c2cn(-c3cccc(NC(N)=O)c3)c(=O)cc2Oc2ccccc2)cn1 | – | > 4.30
CCOc1ccc(-n2cc(-c3cnn(C)c3)c(NCc3cccnc3)cc2=O)c(C)c1 | – | > 4.30
Cc1cc(=O)n(-c2ccc(OC(F)(F)F)cc2)cc1-c1ccc2ocnc2c1 | – | > 4.30
Cn1cc(-c2cn(-c3ccc(OC(F)(F)F)cc3)c(=O)cc2NCc2c(F)cccc2F)cn1 | in the range around 125 µM | –
Cc1nc2c(=O)n(-c3ccc(OC(F)(F)F)cc3)cc(-c3cnn(C)c3)c2n1C | in the range around 125 µM | –
CCn1ccc2c(-c3ccc(F)cc3)cn(-c3ccc(OC(F)(F)F)cc3)c(=O)c21 | – | > 4.30
NS(=O)(=O)c1ccc(-c2ccc(=O)n(-c3cccc(C(F)(F)F)c3)c2)cc1 | – | < 3.70
Cn1cc(-c2cn(-c3ccc(OC(F)(F)F)cc3)c(=O)c3nc[nH]c23)cn1 | – | < 3.70
O=c1cc(OCCN2CCS(=O)(=O)CC2)c(-c2ccc(F)cc2)cn1-c1ccc(OC(F)(F)F)cc1 | – | < 3.70
Cn1cc(-c2cn(-c3ccc(OC(F)(F)F)cc3)c(=O)c3ccc(C(F)(F)F)nc23)cn1 | – | > 4.30
Cc1cc(=O)n(-c2ccc(C(F)(F)F)cc2)cc1-c1cnn(C)c1 | in the range around 125 µM | –
O=c1c2c(c(-c3ccc(F)cc3)cn1-c1ccc(OC(F)(F)F)cc1)CCCC2 | – | < 3.70
CCn1nnc2c(-c3ccc(F)cc3)cn(-c3ccc(OC(F)(F)F)cc3)c(=O)c21 | – | > 4.30
Cc1cc(=O)n(-c2cccc(NC(=O)N(C)C)c2)cc1-c1ccc(F)cc1 | – | > 4.30
Cc1cc(=O)n(-c2ccc(OC(F)(F)F)cc2)cc1-c1cnc2nccn2c1 | – | < 3.70
O=C1COCCN1CCOc1cc(=O)n(-c2ccc(OC(F)(F)F)cc2)cc1-c1ccc(F)cc1 | in the range around 125 µM | –
CCCNC(=O)c1cc(=O)n(-c2ccc(OC(F)(F)F)cc2)cc1-c1cnn(C)c1 | – | < 3.70
